Active and inactive are the calls of the source. The rule behind the calls is not given here.
What was measured:
Influenza A virus [1] = assay: Antiviral activity against Influenza A virus A/WSN/33(H1N1) infected in MDCK cells assessed as inhibition of viral growth pre-infected for 1 hr followed by compound addition and measured 24 hrs post infection by plaque assay; type: functional, organism-based
[2] = Cytotoxicity against MDCK cells assessed as reduction in cell viability incubated for 48 hrs by MTT assay; type: toxicity, cell-based, Canis lupus familiaris; settings: dog
Influenza A virus [3] = assay: Antiviral activity against Influenza A virus A/WSN/33(H1N1) infected in MDCK cells assessed as inhibition of viral growth at 50 uM pre-infected for 1 hr followed by compound addition and measured 24 hrs post infection by plaque assay relative to control; type: functional; settings: time 23 hrs
Influenza A virus [4] = assay: Antiviral activity against Influenza A virus A/WSN/33(H1N1) infected in MDCK cells assessed as reduction in virus-induced cytopathic effect at 12.5 uM pre-infected with cells for 1 hrs followed by compound addition and measured after 2 days by MTT assay; type: functional, organism-based; settings: time 2.0 day
[5] = Selectivity index, ratio of CC50 for cytotoxicity against MDCK cells assessed as reduction in cell viability to IC50 for antiviral activity against Influenza A virus A/WSN/33(H1N1) infected in MDCK cells assessed as inhibition of viral growth; type: toxicity, cell-based; settings: dog, read-out: Ratio CC50/IC50
Influenza A virus [6] = assay: Antiviral activity against Influenza A virus A/WSN/33(H1N1) infected in MDCK cells MOI 0.1 assessed as reduction in viral titre at 12.5 uM pre-infected with cells for 6 hrs followed by compound addition and measured after 2 hrs post infection by time of addition assay; type: functional, organism-based
Influenza A virus [7] = assay: Antiviral activity against Influenza A virus A/WSN/33(H1N1) infected in MDCK cells MOI 0.1 assessed as reduction in viral titre at 12 uM pre-infected with cells for 6 hrs followed by compound addition and measured after 2 to 4 hrs post infection by time of addition assay; type: functional, organism-based
Influenza A virus [8] = assay: Antiviral activity against Influenza A virus A/WSN/33(H1N1) infected in MDCK cells MOI 0.1 assessed as reduction in viral titre at 12.5 uM pre-infected with cells for 6 hrs followed by compound addition and measured after 6 to 8 hrs post infection by time of addition assay; type: functional, organism-based
Influenza A virus [9] = assay: Antiviral activity against Influenza A virus A/WSN/33(H1N1) infected in MDCK cells MOI 0.1 assessed as inhibition of viral growth at 12.5 uM pre-infected with cells for 6 hrs followed by compound addition and measured after 2 to 4 hrs post infection by time of addition assay; type: functional, organism-based
Influenza A virus [10] = assay: Antiviral activity against Influenza A virus A/WSN/33(H1N1) infected in MDCK cells MOI 0.1 assessed as reduction in viral titre at 12.5 uM pre-infected with cells for 6 hrs followed by compound addition and measured after 4 to 6 hrs post infection by time of addition assay; type: functional; parameters: scale not given: the % may be the effect or the level left
Influenza A virus [11] = assay: Antiviral activity against Influenza A virus A/WSN/33(H1N1) infected in chicken erythrocytes assessed as reduction in Haemagglutinin level preincubated for 30 mins followed by viral infection and measured after 40 mins; type: functional, organism-based; settings: Erythrocyte, time 70.0 min
Influenza A virus [12] = assay: Antiviral activity against Influenza A virus A/WSN/33(H1N1) infected in chicken erythrocytes assessed as reduction in neuraminidase level incubated for 2 hrs; type: functional, organism-based; settings: Erythrocyte
[13] = Inhibition of Influenza A virus A/WSN/33(H1N1) Ribonucleoprotein transfected in Vero cells incubated for 48 hrs by spectrophotometer analysis; type: cell-based
[14] = Cytotoxicity against African green monkey Vero cells assessed as reduction in cell viability incubated for 48 hrs by MTT assay; type: toxicity, cell-based; settings: chlorocebus sabaeus
[15] = Selectivity index, ratio of CC50 for cytotoxicity against African green monkey Vero cells assessed as reduction in cell viability to IC50 for inhibition of Influenza A virus A/WSN/33(H1N1) Ribonucleoprotein transfected in Vero cells; type: toxicity, cell-based; settings: read-out: Ratio CC50/IC50
Influenza A virus [16] = assay: Antiviral activity against Influenza A virus A/PR/8/34 infected in MDCK cells MOI 0.01 assessed as inhibition of viral growth pre-infected for 1 hr followed by compound addition and measured 24 hrs post infection by plaque assay; type: functional, organism-based; settings: A/PR/8/34, MDCK
Influenza A virus [17] = assay: Antiviral activity against Influenza A virus A/HK/1/68 infected in MDCK cells MOI 0.01 assessed as inhibition of viral growth pre-infected for 1 hr followed by compound addition and measured 24 hrs post infection by plaque assay; type: functional, organism-based; settings: A/HK/1/68, MDCK
Influenza A virus [18] = assay: Antiviral activity against Influenza A virus B/Florida/4/06 infected in MDCK cells MOI 0.01 assessed as inhibition of viral growth pre-infected for 1 hr followed by compound addition and measured 24 hrs post infection by plaque assay; type: functional, organism-based; settings: B/Florida/4/06, MDCK
[19] = Selectivity index, ratio of CC50 for cytotoxicity against MDCK cells assessed as reduction in cell viability to IC50 for antiviral activity against Influenza A virus A/PR/8/34 infected in MDCK cells MOI 0.01 assessed as inhibition of viral growth; type: toxicity, cell-based; settings: dog, read-out: Ratio CC50/IC50
[20] = Selectivity index, ratio of CC50 for cytotoxicity against MDCK cells assessed as reduction in cell viability to IC50 for antiviral activity against Influenza A virus A/HK/1/68 infected in MDCK cells MOI 0.01 assessed as inhibition of viral growth; type: toxicity, cell-based; settings: dog, read-out: Ratio CC50/IC50
[21] = Selectivity index, ratio of CC50 for cytotoxicity against MDCK cells assessed as reduction in cell viability to IC50 for antiviral activity against Influenza A virus B/Florida/4/06 infected in MDCK cells MOI 0.01 assessed as inhibition of viral growth; type: toxicity, cell-based; settings: dog, read-out: Ratio CC50/IC50
[22] = biological target: Polymerase acidic protein (Influenza A virus (A/Puerto Rico/8/1934(H1N1)), UniProt P03433); assay: Binding affinity to C-terminal Influenza A virus Polymerase acidic protein assessed as dissociation constant by MST assay
Nucleoprotein = Nucleoprotein (Influenza A virus (strain A/Wilson-Smith/1933 H1N1), UniProt P15682); assay: Binding affinity to Influenza A virus Nucleoprotein assessed as dissociation constant by MST assay
Chain of Nucleoprotein (P15682 whole entry): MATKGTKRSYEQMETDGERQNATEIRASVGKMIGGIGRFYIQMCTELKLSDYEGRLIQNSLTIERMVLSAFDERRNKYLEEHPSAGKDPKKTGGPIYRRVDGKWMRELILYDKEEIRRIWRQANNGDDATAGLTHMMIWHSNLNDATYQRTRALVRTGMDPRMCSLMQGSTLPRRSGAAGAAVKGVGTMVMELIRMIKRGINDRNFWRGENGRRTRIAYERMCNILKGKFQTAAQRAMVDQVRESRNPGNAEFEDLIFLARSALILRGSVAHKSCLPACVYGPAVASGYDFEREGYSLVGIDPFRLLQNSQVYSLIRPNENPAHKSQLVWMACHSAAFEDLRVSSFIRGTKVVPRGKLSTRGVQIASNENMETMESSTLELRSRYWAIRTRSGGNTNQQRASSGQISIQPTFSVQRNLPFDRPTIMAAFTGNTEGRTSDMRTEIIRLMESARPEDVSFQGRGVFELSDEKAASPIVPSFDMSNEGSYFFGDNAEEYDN

MDCK = assay: Cytotoxicity against MDCK cells assessed as reduction in cell viability at 12.5 uM incubated for 48 hrs by MTT assay; type: toxicity, cell-based, Canis lupus familiaris; settings: dog
Influenza A virus [23] = assay: Antiviral activity against Influenza A virus A/WSN/33(H1N1) infected in MDCK cells assessed as inhibition of viral growth at 6.25 uM pre-infected for 1 hr followed by compound addition and measured 24 hrs post infection by plaque assay relative to control; type: functional; settings: time 23 hrs
Influenza A virus [24] = assay: Antiviral activity against Influenza A virus A/WSN/33(H1N1) infected in MDCK cells assessed as inhibition of viral growth at 100 uM pre-infected for 1 hr followed by compound addition and measured 24 hrs post infection by plaque assay relative to control; type: functional; settings: time 23 hrs
Influenza A virus [25] = assay: Antiviral activity against Influenza A virus A/WSN/33(H1N1) infected in MDCK cells assessed as reduction in virus-induced cytopathic effect at 100 uM pre-infected with cells for 1 hrs followed by compound addition and measured after 2 days by MTT assay; type: functional, organism-based; settings: time 2.0 day
Influenza A virus [26] = assay: Antiviral activity against Influenza A virus A/WSN/33(H1N1) infected in MDCK cells MOI 0.1 assessed as reduction in viral titre at 100 uM pre-infected with cells for 6 hrs followed by compound addition and measured after 2 hrs post infection by time of addition assay; type: functional, organism-based
Influenza A virus [27] = assay: Antiviral activity against Influenza A virus A/WSN/33(H1N1) infected in MDCK cells MOI 0.1 assessed as reduction in viral titre at 100 uM pre-infected with cells for 6 hrs followed by compound addition and measured after 2 to 4 hrs post infection by time of addition assay; type: functional, organism-based
Influenza A virus [28] = assay: Antiviral activity against Influenza A virus A/WSN/33(H1N1) infected in MDCK cells MOI 0.1 assessed as reduction in viral titre at 100 uM pre-infected with cells for 6 hrs followed by compound addition and measured after 6 to 8 hrs post infection by time of addition assay; type: functional, organism-based
Influenza A virus [29] = assay: Antiviral activity against Influenza A virus A/WSN/33(H1N1) infected in MDCK cells MOI 0.1 assessed as reduction in viral titre at 100 uM pre-infected with cells for 6 hrs followed by compound addition and measured after 4 to 6 hrs post infection by time of addition assay; type: functional, organism-based
Influenza A virus [30] = assay: Antiviral activity against Influenza A virus A/WSN/33(H1N1) infected in MDCK cells assessed as reduction in virus-induced cytopathic effect at 25 uM pre-infected with cells for 1 hrs followed by compound addition and measured after 2 days by MTT assay; type: functional, organism-based; settings: time 2.0 day
Influenza A virus [31] = assay: Antiviral activity against Influenza A virus A/WSN/33(H1N1) infected in MDCK cells assessed as inhibition of viral growth 12.5 uM pre-infected for 1 hr followed by compound addition and measured 24 hrs post infection by plaque assay relative to control; type: functional; settings: time 23.0 hrs

CCC(CC)O[C@@H]1C=C(C(=O)O)C[C@H](N)[C@H]1NC(C)=O [OSELTAMIVIR CARBOXYLATE]
IC50 (Influenza A virus [1]): 9e-06 µM

O=C(CNC(=O)c1ccccc1Nc1ccnc2cc(C(F)(F)F)ccc12)NCCCN1CCOCC1
CC50 at 48 h [2]: > 50 µM | inhibition at 50 µM (Influenza A virus [3]): 94.9%

O=C(NCCCN1CCOCC1)c1ccccc1Nc1ccnc2ccc(Cl)cc12
CC50 at 48 h [2]: > 50 µM | IC50 (Influenza A virus [1]): 3.21 µM | Activity (Influenza A virus [4]): Active | selectivity ratio [5]: > 16 | Activity (Influenza A virus [6]): Active | Activity (Influenza A virus [7]): Active | Activity (Influenza A virus [8]): inactive | inhibition (Influenza A virus [9]): Active | Activity (Influenza A virus [10]): 5% | Activity (Influenza A virus [11]): inactive | Activity (Influenza A virus [12]): inactive | IC50 [13]: 11.8 µM | CC50 at 48 h [14]: 31.4 µM | selectivity ratio [15]: > 3 | IC50 (Influenza A virus [16]): 3.94 µM | IC50 (Influenza A virus [17]): 3.31 µM | IC50 (Influenza A virus [18]): 3.32 µM | selectivity ratio [19]: > 13 | selectivity ratio [20]: > 15 | selectivity ratio [21]: > 15 | Kd [22]: 28.8 µM | Kd (Nucleoprotein): 33 µM

O=C(Nc1cccc([N+](=O)[O-])c1)c1ccccc1Nc1ccnc2ccc(Cl)cc12
Activity (MDCK): Toxic | inhibition at 6.25 µM (Influenza A virus [23]): 21.4%

CCN(CC)CCCNC(=O)c1ccccc1Nc1ccnc2ccc(Cl)cc12
CC50 at 48 h [2]: 38 µM | inhibition at 6.25 µM (Influenza A virus [23]): 15.3%

O=C(NCCN1CCN(c2ccccc2OC(F)(F)F)CC1)c1ccccc1Nc1ccnc2ccc(Cl)cc12
CC50 at 48 h [2]: > 100 µM | inhibition at 50 µM (Influenza A virus [3]): 50%

O=C(O)c1ccccc1Nc1ccnc2cc(C(F)(F)F)ccc12
CC50 at 48 h [2]: > 100 µM | IC50 (Influenza A virus [1]): 6.73 µM | inhibition at 100 µM (Influenza A virus [24]): 97.3% | Activity (Influenza A virus [25]): Active | selectivity ratio [5]: > 15 | Activity (Influenza A virus [26]): Active | Activity (Influenza A virus [27]): Active | Activity (Influenza A virus [28]): inactive | Activity (Influenza A virus [29]): Active | Activity (Influenza A virus [11]): inactive | Activity (Influenza A virus [12]): inactive | IC50 [13]: 19.2 µM | CC50 at 48 h [14]: > 200 µM | selectivity ratio [15]: > 10 | IC50 (Influenza A virus [16]): 11.3 µM | IC50 (Influenza A virus [17]): 27.8 µM | IC50 (Influenza A virus [18]): 22.3 µM | selectivity ratio [19]: > 9 | selectivity ratio [20]: > 4 | selectivity ratio [21]: > 4 | Kd [22]: 8.36 µM | Kd (Nucleoprotein): 20.4 µM

O=C(Nc1ccc(Br)cc1)c1ccccc1Nc1ccnc2cc(C(F)(F)F)ccc12
Activity (MDCK): Toxic | inhibition at 6.25 µM (Influenza A virus [23]): 74.5%

O=C(O)c1ccccc1Nc1ccnc2ccc(Cl)cc12
CC50 at 48 h [2]: > 100 µM | inhibition at 50 µM (Influenza A virus [3]): 3.5%

O=C(CNC(=O)c1ccccc1Nc1ccnc2cc(C(F)(F)F)ccc12)NC1CCCCC1
CC50 at 48 h [2]: > 100 µM | inhibition at 50 µM (Influenza A virus [3]): 69.3%

O=C(CNC(=O)c1ccccc1Nc1ccnc2ccc(Cl)cc12)NCc1ccccc1
CC50 at 48 h [2]: > 100 µM | Activity (Influenza A virus [25]): Active

O=C(Nc1cccc([N+](=O)[O-])c1)c1ccccc1Nc1ccnc2cc(C(F)(F)F)ccc12
CC50 at 48 h [2]: > 100 µM | IC50 (Influenza A virus [1]): 5.53 µM | inhibition at 100 µM (Influenza A virus [24]): 99.8% | Activity (Influenza A virus [30]): Active | selectivity ratio [5]: > 18 | Activity (Influenza A virus [26]): Active | Activity (Influenza A virus [27]): Active | Activity (Influenza A virus [28]): inactive | Activity (Influenza A virus [29]): Active | Activity (Influenza A virus [11]): inactive | Activity (Influenza A virus [12]): inactive | IC50 [13]: 14 µM | CC50 at 48 h [14]: > 100 µM | selectivity ratio [15]: > 7 | IC50 (Influenza A virus [16]): 5.5 µM | IC50 (Influenza A virus [17]): 8.5 µM | IC50 (Influenza A virus [18]): 12 µM | selectivity ratio [19]: > 18 | selectivity ratio [20]: > 12 | selectivity ratio [21]: > 8

Cc1ccccc1N1CCN(CCNC(=O)c2ccccc2Nc2ccnc3ccc(Cl)cc23)CC1
Activity (MDCK): Toxic

O=C(NCCN1CCN(c2ccccc2)CC1)c1ccccc1Nc1ccnc2ccc(Cl)cc12
CC50 at 48 h [2]: > 100 µM | inhibition (Influenza A virus [31]): inactive | Activity (Influenza A virus [25]): Active

Source: ChEMBL document CHEMBL5625251, “Anti-influenza virus activities and mechanism of antrafenine analogs” (Eur J Med Chem, 2023)
